pKd: −log10 of the molar value.

Chain of hCereblon(M1-L442)_hDDB1(M1-H1140) (Q96SW2 whole entry): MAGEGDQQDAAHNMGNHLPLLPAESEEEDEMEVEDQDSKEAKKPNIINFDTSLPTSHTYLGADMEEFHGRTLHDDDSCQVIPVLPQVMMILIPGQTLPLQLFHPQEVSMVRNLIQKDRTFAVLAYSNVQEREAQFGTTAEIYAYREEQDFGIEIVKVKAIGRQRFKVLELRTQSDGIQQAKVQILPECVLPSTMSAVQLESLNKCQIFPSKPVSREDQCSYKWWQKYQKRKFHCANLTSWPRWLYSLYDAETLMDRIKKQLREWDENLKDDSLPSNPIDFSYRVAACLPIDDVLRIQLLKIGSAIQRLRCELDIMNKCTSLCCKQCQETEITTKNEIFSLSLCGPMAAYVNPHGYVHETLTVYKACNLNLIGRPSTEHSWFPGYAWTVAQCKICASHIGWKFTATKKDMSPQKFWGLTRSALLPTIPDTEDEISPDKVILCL
Chain of hCereblon(M1-L442)_hDDB1(M1-H1140) (Q16531 whole entry partner): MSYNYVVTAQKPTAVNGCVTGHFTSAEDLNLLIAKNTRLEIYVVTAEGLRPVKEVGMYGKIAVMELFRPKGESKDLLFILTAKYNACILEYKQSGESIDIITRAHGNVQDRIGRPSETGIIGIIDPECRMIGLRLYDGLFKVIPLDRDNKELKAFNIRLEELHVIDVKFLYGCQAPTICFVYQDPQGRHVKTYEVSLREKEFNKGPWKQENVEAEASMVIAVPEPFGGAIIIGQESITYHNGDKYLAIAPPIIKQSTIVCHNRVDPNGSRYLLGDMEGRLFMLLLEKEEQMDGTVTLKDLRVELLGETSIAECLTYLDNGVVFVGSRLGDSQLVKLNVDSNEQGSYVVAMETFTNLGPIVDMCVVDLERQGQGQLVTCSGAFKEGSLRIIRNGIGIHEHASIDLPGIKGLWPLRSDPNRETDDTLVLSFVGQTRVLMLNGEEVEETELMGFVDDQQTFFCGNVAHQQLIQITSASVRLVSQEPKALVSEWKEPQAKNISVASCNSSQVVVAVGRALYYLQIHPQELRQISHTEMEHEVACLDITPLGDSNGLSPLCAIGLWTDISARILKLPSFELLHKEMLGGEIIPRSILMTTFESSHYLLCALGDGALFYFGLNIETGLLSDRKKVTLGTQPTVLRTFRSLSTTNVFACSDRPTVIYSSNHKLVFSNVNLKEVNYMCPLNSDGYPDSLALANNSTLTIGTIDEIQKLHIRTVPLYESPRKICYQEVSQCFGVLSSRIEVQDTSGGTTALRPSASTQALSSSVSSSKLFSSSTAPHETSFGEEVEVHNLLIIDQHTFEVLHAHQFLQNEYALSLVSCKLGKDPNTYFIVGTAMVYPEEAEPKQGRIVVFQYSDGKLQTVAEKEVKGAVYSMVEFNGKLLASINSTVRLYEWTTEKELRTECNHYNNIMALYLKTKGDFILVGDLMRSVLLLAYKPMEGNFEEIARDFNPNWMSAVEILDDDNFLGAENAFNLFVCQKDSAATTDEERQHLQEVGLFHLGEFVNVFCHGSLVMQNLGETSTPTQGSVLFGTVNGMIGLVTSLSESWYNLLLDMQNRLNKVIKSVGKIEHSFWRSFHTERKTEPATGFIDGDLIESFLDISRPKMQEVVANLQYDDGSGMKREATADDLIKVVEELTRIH

In this test the target is hCereblon(M1-L442)_hDDB1(M1-H1140) (Homo sapiens (Human), UniProt Q96SW2). As to the kind of experiment: Fluorescence direct binding protocol (tryptophan fluorescence titration). The following applies: fluorescence titration at 20° C., excited at 280 nm, recorded at 340 nm; protein 5.0 E−8 M; assay buffer 50 mM Hepes 7.4 200 mM NaCl; read-out: Fluorescence h-Cereblon_DDB1 Mean Kd_EQ. The method, boiled down:
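At 20° C., protein at constant concentration was titrated with ligand in DMSO over at least 12 steps, exciting tryptophan at 280 nm and reading emission at 340 nm. Intensities were corrected for dilution and filter effect, and Kd was fitted assuming 1:1 binding.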
With `Nc1ccc2c(c1)CCN2C(=O)Nc1ccc2[nH]c(=O)[nH]c2c1` [Example 121, 5-Amino-N-(2-oxo-2,3-dihydro-1H-benzo[d]imidazol-5-yl)indoline-1-carboxamide], the pKd is 7.19. Turning to `O=c1[nH]c2ccc(-c3cccc4ncccc34)cc2[nH]1` [Example 42, 5-Quinolin-5-yl-1,3-dihydro-benzoimidazol-2-one], the pKd is 6.47. In the case of `COC(=O)c1ccc(Nc2ccc3[nH]c(=O)[nH]c3c2)c(N)c1` [Example 9, Methyl 3-amino-4-((2-oxo-2,3-dihydro-1H-benzo[d]imidazol-5-yl)amino)benzoate], the pKd is 7.54.

As to `CN(C(=O)c1cnc2[nH]c(=O)[nH]c2c1)c1ccccc1` [Example 76, N-Methyl-2-oxo-N-phenyl-2,3-dihydro-1H-imidazo[4,5-b]pyridine-6-carboxamide], the pKd is 7.39. In the case of `COC(=O)c1ccc(S(=O)(=O)Nc2ccc3[nH]c(=O)[nH]c3c2)cc1` [Example 118, Methyl 4-(N-(2-oxo-2,3-dihydro-1H-benzo[d]imidazol-5-yl)sulfamoyl)benzoate], the pKd is 7.09. For `Cn1c(=O)n(C)c2cc(Nc3ccccc3[N+](=O)[O-])ccc21` [Example 49, 1,3-Dimethyl-5-((2-nitrophenyl)amino)-1,3-dihydro-2H-benzo[d]imidazol-2-one], the pKd was 7.64. Take `O=c1[nH]c2ccc(-n3cnc4ccccc43)cc2[nH]1` [Example 83, 5-(Benzimidazol-1-yl)-1,3-dihydrobenzimidazol-2-one]: the pKd was 8.52. For `CC(=O)N1CCC(NS(=O)(=O)c2ccc3[nH]c(=O)[nH]c3c2)CC1` [Example 117, N-(1-Acetylpiperidin-4-yl)-2-oxo-2,3-dihydro-1H-benzo[d]imidazole-5-sulfonamide], the pKd was 8.10.

For `CC(=O)N1CCc2c(C(=O)Nc3ccc4[nH]c(=O)[nH]c4c3)cccc21` [Example 145, 1-Acetyl-N-(2-oxo-2,3-dihydro-1H-benzo[d]imidazol-5-yl)indoline-4-carboxamide], the pKd is 7.08. Regarding `CC(=O)Nc1ccc(NC(=O)Nc2ccc3[nH]c(=O)[nH]c3c2)cc1` [Example 101, N-(4-(3-(2-oxo-2,3-dihydro-1H-benzo[d]imidazol-5-yl)ureido)phenyl)acetamide], the pKd was 7.85. The figure for `CC(C)c1nc2ccccc2n1-c1ccc2c(c1)[nH]c(=O)n2C` [Example 34, 2-Isopropyl-1′-methyl-1′,3′-dihydro-2′H-[1,5′-bibenzo[d]imidazol]-2′-one] is 7.72. The figure for `CNC(=O)c1ccc(Nc2ccc3[nH]c(=O)[nH]c3c2)c(N)c1` [Example 1, 3-Amino-N-methyl-4-[(2-oxo-1,3-dihydrobenzimidazol-5-yl)amino]benzamide] is 6.23. Turning to `O=c1[nH]c2ccc(-c3cccnc3)cc2[nH]1` [Example 19, 5-(Pyridin-3-yl)-1H-benzo[d]imidazol-2(3H)-one], the pKd is 8.15. Take `CNS(=O)(=O)c1ccc(CC(=O)Nc2ccc3[nH]c(=O)[nH]c3c2)cc1` [Example 106, 2-(4-(N-Methylsulfamoyl)phenyl)-N-(2-oxo-2,3-dihydro-1H-benzo[d]imidazol-5-yl)acetamide]: the pKd was 9.00. The figure for `Cc1sc2c(c1C)C(c1ccc(Cl)cc1)=N[C@@H](CC(=O)NCCCCCNC(=O)c1cccc3c1CCN3C(=O)Nc1ccc3[nH]c(=O)[nH]c3c1)c1nnc(C)n1-2` [Example D, N4-[5-[[2-[(9S)-7-(4-Chlorophenyl)-4,5,13-trimethyl-3-thia-1,8,11,12-tetrazatricyclo[8.3.0.02,6]trideca-2(6),4,7,10,12-pentaen-9-yl]acetyl]amino]pentyl]-N1-(2-oxo-1,3-dihydrobenzimidazol-5-yl)indoline-1,4-dicarboxamide] is 8.15; for `COC(=O)c1ccc2c(c1)CN(c1ccc3[nH]c(=O)[nH]c3c1)C2=O` [Example 112, Methyl 1-oxo-2-(2-oxo-1,3-dihydrobenzimidazol-5-yl)isoindoline-5-carboxylate] it is 7.24; for `CC(=O)NCCc1nc2ccccc2n1-c1ccc2[nH]c(=O)[nH]c2c1` [Example 80, N-[2-[1-(2-Oxo-1,3-dihydrobenzimidazol-5-yl)benzimidazol-2-yl]ethyl]acetamide] it is 7.82.

On to `CNC(=O)c1ccc2c(c1)nc(-c1ccncc1)n2-c1ccc2[nH]c(=O)[nH]c2c1` [Example 11, N-Methyl-2′-oxo-2-(pyridin-4-yl)-2′,3′-dihydro-1′H-[1,5′-bibenzo[d]imidazole]-5-carboxamide], for which the pKd was 8.10. As for `O=C(Nc1ccccc1)c1ccc2[nH]c(=O)[nH]c2c1` [Example 77, 2-Oxo-N-phenyl-2,3-dihydro-1H-benzo[d]imidazole-5-carboxamide], the pKd is 7.38. `CC(O)c1nc2ccccc2n1-c1ccc2[nH]c(=O)[nH]c2c1` (stereo not drawn) [Example 84, 5-[2-(1-Hydroxyethyl)benzimidazol-1-yl]-1,3-dihydrobenzimidazol-2-one]: the pKd was 8.52.

As to `O=C(Nc1ccccc1)c1cnc2[nH]c(=O)[nH]c2c1` [Example 67, 2-Oxo-N-phenyl-2,3-dihydro-1H-imidazo[4,5-b]pyridine-6-carboxamide], the pKd is 8.30. On to `O=C(Nc1ccc(Nc2ccccc2)cc1)Nc1ccc2[nH]c(=O)[nH]c2c1` [Example 87, 1-(2-Oxo-2,3-dihydro-1H-benzo[d]imidazol-5-yl)-3-(4-(phenylamino)phenyl)urea], for which the pKd was 7.57. As for `Cn1cncc1-c1cc(-c2nc3ccccc3n2-c2ccc3c(c2)n(C)c(=O)n3C)c2ccccc2n1` [Example 31, 1′,3′-Dimethyl-2-(2-(1-methyl-1H-imidazol-5-yl)quinolin-4-yl)-1′,3′-dihydro-2′H-[1,5′-bibenzo[d]imidazol]-2′-one], the pKd was 8.15. Consider `O=C(NC1CCNCC1)c1ccc2[nH]c(=O)[nH]c2c1` [Example 51, 2-Oxo-N-(4-piperidyl)-1,3-dihydrobenzimidazole-5-carboxamide], for which the pKd is 6.86. For `Cn1c(=O)[nH]c2ncc(C(=O)Nc3ccccc3)cc21` [Example 27, 1-Methyl-2-oxo-N-phenyl-3H-imidazo[4,5-b]pyridine-6-carboxamide], the pKd was 9.00.

In the case of `Cn1c(=O)n(C)c2cc(Nc3ccccc3N)ccc21` [Example 50, 5-((2-Aminophenyl)amino)-1,3-dimethyl-1,3-dihydro-2H-benzo[d]imidazol-2-one], the pKd is 7.96. In the case of `CNC(=O)c1ccc2c(c1)nc(C1(c3ccc(OC)cc3)CC1)n2-c1ccc2[nH]c(=O)[nH]c2c1` [Example 115, 2-(1-(4-Methoxyphenyl)cyclopropyl)-N-methyl-2′-oxo-2′,3′-dihydro-1′H-[1,5′-bibenzo[d]imidazole]-5-carboxamide], the pKd is 7.02. Turning to `CNC(=O)c1ccc2c(c1)nc(C)n2-c1ccc2[nH]c(=O)[nH]c2c1` [Example 5, N,2-Dimethyl-2′-oxo-2′,3′-dihydro-1′H-[1,5′-bibenzo[d]imidazole]-5-carboxamide], the pKd was 6.74.

`Cn1cncc1-c1cc(-c2nc3cc(C(N)=O)ccc3n2-c2ccc3[nH]c(=O)[nH]c3c2)c2ccccc2n1` [Example 113, 2-(2-(1-Methyl-1H-imidazol-5-yl)quinolin-4-yl)-2′-oxo-2′,3′-dihydro-1′H-[1,5′-bibenzo[d]imidazole]-5-carboxamide]: the pKd is 6.05.

Take `CCOC(=O)c1ccc(NS(=O)(=O)c2ccc3[nH]c(=O)[nH]c3c2)cc1` [Example 43, Ethyl 4-((2-oxo-2,3-dihydro-1H-benzo[d]imidazole)-5-sulfonamido)benzoate]: the pKd is 7.00.

As to `O=c1[nH]c2ccc(-c3ccnc(Cl)c3)cc2[nH]1` [Example 20, 5-(2-Chloropyridin-4-yl)-1H-benzo[d]imidazol-2(3H)-one], the pKd was 7.17. For `O=c1[nH]c2ccc(-c3cc(F)ccc3F)cc2[nH]1` [Example 37, 5-(2,5-Difluoro-phenyl)-1,3-dihydro-benzoimidazol-2-one], the pKd was 8.00. As for `Cn1c(=O)n(C)c2cc(NC(=O)c3ccco3)ccc21` [Example 25, N-(1,3-Dimethyl-2-oxo-benzimidazol-5-yl)furan-2-carboxamide], the pKd was 6.95.

With `O=c1[nH]c2ccc(N3CCN(c4ccccn4)CC3)nc2[nH]1` [Example 40, 5-[4-(2-Pyridyl)piperazin-1-yl]-1,3-dihydroimidazo[4,5-b]pyridin-2-one], the pKd is 8.15.

In the case of `CC(=O)N1CCC(NC(=O)c2ccc3[nH]c(=O)[nH]c3c2)CC1` [Example 23, N-(1-Acetylpiperidin-4-yl)-2-oxo-2,3-dihydro-1H-benzo[d]imidazole-5-carboxamide], the pKd was 8.52.

For the molecule `CC(=O)NCCC(=O)Nc1ccc2[nH]c(=O)[nH]c2c1` [Example 90, 3-Acetamido-N-(2-oxo-2,3-dihydro-1H-benzo[d]imidazol-5-yl)propanamide], the pKd is 7.72.

In the case of `O=C1CCCN1c1ccc2[nH]c(=O)[nH]c2c1` [Example 33, 5-(2-Oxopyrrolidin-1-yl)-1,3-dihydro-2H-benzo[d]imidazol-2-one], the pKd is 7.62. On to `Cc1sc2c(c1C)C(c1ccc(Cl)cc1)=N[C@@H](CC(=O)NCCOCCOCCNC(=O)c1ccc3c(c1)nc(-c1ccnc4ccccc14)n3-c1ccc3[nH]c(=O)[nH]c3c1)c1nnc(C)n1-2` [Example C, (S)—N-(2-(2-(2-(2-(4-(4-Chlorophenyl)-2,3,9-trimethyl-6H-thieno[3,2-f][1,2,4]triazolo[4,3-a][1,4]diazepin-6-yl)acetamido)ethoxy)ethoxy)ethyl)-2′-oxo-2-(quinolin-4-yl)-2′,3′-dihydro-1′H-[1,5′-bibenzo[d]imidazole]-5-carboxamide], for which the pKd is 7.72. Consider `O=c1[nH]c2ccc(-c3ccc(F)cc3F)cc2[nH]1` [Example 38, 5-(2,4-Difluoro-phenyl)-1,3-dihydro-benzoimidazol-2-one], for which the pKd was 7.09.

Source of the values: US11787802B2, “Dihydrobenzimidazolones for medical treatment” (C4 Therapeutics, Inc., priority 2017, dated 2023).
